From ChEMBL document CHEMBL1147799, “An integrated in silico 3D model-driven discovery of a novel, potent, and selective amidosulfonamide 5-HT1A agonist (PRX-00023) for the treatment of anxiety and depression” (J Med Chem, 2006)
Calls of active or inactive are those of the source. No cut-off for these calls is given here.

Key:
[1] = molecular target: T1, Alpha-2A adrenergic receptor (Rattus norvegicus) (UniProt P22909); experiment: Displacement of [3H]RX 821002 from Adrenergic alpha-2a receptor in rat cerebral cortex cells at 1 uM; assay type: cell-based
T1 sequence (whole entry): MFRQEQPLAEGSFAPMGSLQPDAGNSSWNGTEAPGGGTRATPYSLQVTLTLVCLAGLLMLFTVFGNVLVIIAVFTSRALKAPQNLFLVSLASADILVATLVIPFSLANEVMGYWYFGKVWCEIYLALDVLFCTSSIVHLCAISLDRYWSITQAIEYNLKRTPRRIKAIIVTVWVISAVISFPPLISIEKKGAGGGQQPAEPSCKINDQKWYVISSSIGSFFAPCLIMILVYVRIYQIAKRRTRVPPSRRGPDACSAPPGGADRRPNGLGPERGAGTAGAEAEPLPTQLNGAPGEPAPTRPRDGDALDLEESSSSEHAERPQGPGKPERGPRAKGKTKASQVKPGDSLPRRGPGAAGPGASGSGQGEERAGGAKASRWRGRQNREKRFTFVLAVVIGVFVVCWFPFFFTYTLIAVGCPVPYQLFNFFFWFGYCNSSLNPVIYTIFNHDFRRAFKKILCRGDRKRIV

[2] = molecular target: 5-hydroxytryptamine receptor 1A (Rattus norvegicus, UniProt P19327); experiment: Binding affinity to 5HT1A receptor in rat cerebral cortex by radioligand binding assay; assay type: tissue-based
[3] = molecular target: 5-hydroxytryptamine receptor 4 (Homo sapiens, UniProt Q13639); experiment: Binding affinity to human 5HT4e receptor by radioligand binding assay
[4] = molecular target: 5-hydroxytryptamine receptor 5A (Homo sapiens, UniProt P47898); experiment: Binding affinity to human 5HT5A receptor by radioligand binding assay
[5] = molecular target: Cytochrome P450 2D6 (Homo sapiens, UniProt P10635); experiment: Inhibition of human recombinant cytochrome P450 2D6; assay type: ADME; settings: recombinant enzyme
[6] = molecular target: Cytochrome P450 3A4 (Homo sapiens, UniProt P08684); experiment: Inhibition of human recombinant cytochrome P450 3A4; assay type: ADME; settings: recombinant enzyme
[7] = Oral bioavailability in Beagle dog at 3 mg/kg, po and 1 mg/kg, iv; assay type: ADME, organism-based, Canis lupus familiaris; settings: in vivo
[8] = Cmax in Beagle dog at 3 mg/kg, po; assay type: ADME, organism-based, Canis lupus familiaris; design: dose 3 mg/kg, route oral; settings: in vivo
[9] = Protein binding in human serum at 10 uM; assay type: ADME, organism-based; settings: read-out: PPB (converted)
[10] = molecular target: Dopamine receptor; experiment: Binding affinity to dopamine receptor by radioligand binding assay; assay type: protein assay
[11] = Binding affinity to galanin receptor by radioligand binding assay
[12] = Binding affinity to chemokine receptor by radioligand binding assay
[13] = molecular target: Opioid receptors; mu/kappa/delta (Homo sapiens, UniProt P41145+P41143+P35372); experiment: Binding affinity to opioid receptor by radioligand binding assay; assay type: protein assay
[14] = Binding affinity to vasoactive intestinal peptide receptor by radioligand binding assay
[15] = test system: Mus musculus; experiment: Decrease in basal rectal temperature in stress-induced hyperthermic 129S6/SvEvTac mouse at 20 mg/kg, po; assay type: functional, organism-based; design: dose 20 mg/kg
[16] = molecular target: Adrenergic receptor alpha-1 (Rattus norvegicus) (UniProt P15823+P23944+P43140); experiment: Displacement of [3H]prazosin from Adrenergic alpha-1 receptor in rat cerebral cortex cells at 1 uM; assay type: cell-based
[17] = Toxicity in po dosed Sprague-Dawley rat; assay type: organism-based; settings: in vivo

Chain of 5-hydroxytryptamine receptor 1A (P19327 whole entry): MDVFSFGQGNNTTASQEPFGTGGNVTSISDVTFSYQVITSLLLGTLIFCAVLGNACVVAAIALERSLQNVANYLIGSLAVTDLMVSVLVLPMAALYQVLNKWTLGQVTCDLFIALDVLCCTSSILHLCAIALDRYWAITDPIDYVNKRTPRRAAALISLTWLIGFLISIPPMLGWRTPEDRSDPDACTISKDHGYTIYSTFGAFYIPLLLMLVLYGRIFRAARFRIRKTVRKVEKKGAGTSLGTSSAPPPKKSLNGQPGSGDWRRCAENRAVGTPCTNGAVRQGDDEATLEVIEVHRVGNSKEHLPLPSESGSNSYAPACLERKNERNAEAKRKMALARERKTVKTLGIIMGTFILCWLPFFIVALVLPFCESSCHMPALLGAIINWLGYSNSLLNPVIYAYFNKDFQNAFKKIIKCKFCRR
Chain of Cytochrome P450 3A4 (P08684 whole entry): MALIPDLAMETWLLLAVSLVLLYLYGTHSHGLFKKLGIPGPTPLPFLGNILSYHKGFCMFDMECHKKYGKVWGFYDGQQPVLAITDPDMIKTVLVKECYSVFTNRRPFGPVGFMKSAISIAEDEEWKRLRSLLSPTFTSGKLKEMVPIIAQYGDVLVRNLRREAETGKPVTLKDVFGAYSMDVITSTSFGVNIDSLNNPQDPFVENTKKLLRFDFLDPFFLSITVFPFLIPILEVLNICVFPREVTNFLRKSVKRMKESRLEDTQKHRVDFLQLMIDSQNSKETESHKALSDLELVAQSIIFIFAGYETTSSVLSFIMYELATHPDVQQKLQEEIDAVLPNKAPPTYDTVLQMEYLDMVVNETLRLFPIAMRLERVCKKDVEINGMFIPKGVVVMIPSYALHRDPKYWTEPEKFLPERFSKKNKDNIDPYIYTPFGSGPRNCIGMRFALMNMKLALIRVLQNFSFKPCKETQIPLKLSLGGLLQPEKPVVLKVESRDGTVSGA
Chain of Cytochrome P450 2D6 (P10635 whole entry): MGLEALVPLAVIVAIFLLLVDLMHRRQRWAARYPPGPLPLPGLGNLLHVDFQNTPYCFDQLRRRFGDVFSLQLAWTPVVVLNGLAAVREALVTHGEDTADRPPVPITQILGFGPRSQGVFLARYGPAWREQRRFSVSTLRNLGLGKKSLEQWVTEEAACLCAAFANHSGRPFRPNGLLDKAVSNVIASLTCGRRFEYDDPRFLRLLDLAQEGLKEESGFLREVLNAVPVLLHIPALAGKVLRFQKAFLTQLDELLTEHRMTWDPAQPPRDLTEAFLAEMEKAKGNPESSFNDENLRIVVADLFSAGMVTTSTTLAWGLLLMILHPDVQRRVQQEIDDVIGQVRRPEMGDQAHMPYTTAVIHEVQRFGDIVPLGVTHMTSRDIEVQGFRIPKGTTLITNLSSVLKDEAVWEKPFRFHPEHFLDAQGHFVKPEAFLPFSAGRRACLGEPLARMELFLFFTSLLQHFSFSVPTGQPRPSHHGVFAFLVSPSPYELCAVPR
Chain of 5-hydroxytryptamine receptor 5A (P47898 whole entry): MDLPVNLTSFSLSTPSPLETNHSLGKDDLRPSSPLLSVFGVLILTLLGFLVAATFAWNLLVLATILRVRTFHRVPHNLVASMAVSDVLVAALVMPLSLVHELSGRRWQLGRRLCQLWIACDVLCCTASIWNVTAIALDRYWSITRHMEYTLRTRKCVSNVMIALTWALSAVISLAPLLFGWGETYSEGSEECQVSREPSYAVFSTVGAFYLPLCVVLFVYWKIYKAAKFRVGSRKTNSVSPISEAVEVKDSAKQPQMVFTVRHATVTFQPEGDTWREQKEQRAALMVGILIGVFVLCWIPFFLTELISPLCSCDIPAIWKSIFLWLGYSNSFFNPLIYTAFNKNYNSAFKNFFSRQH
Chain of 5-hydroxytryptamine receptor 4 (Q13639 whole entry): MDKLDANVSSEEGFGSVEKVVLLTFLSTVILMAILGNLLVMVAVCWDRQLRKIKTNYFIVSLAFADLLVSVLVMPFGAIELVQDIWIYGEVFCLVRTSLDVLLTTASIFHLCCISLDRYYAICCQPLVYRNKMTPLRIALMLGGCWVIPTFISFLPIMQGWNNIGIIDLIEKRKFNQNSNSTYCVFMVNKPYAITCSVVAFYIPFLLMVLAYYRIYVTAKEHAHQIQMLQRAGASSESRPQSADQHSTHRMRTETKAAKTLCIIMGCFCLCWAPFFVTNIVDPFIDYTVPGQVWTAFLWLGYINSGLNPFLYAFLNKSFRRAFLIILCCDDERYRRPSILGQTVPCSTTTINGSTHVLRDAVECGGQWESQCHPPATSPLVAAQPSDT

## CC(=O)Nc1cccc(N2CCN(CCCCNS(=O)(=O)CC3CCCCC3)CC2)c1 [NALUZOTAN]
[1]
  Activity: 0%
[2]
  Ki: 0.017 µM
[3]
  Ki: > 5 µM
[4]
  Ki: > 5 µM
[5]
  Inhibition: Not Active
[6]
  Inhibition: Not Active
[7]
  bioavailability: 16%
[8]
  Cmax: 174 ng/mL
[9]
  fraction unbound at 10 µM: 0.08
[10]
  Ki: > 2 µM
[11]
  Ki: > 2 µM
[12]
  Ki: > 2 µM
[13]
  Ki: > 2 µM
[14]
  Ki: > 2 µM
[15]
  Activity: Active
[16]
  Activity: 47%
[17]
  MTD: 300 mg/kg
